Reference: publication PMC11132046, “A Natural Peptide from A Traditional Chinese Medicine Has the Potential to Treat Chronic Atrophic Gastritis by Activating Gastric Stem Cells” (Advanced Science, 2024)
pIC50: −log10 of the molar value. “Also recorded” adds a separate entry of the source. Where no end group is shown, it is not given here.

How the values were obtained:
gastric organoids = assay: Inhibition of PEEPA-induced organoid growth by pathway inhibitors; assay type: cell-based, mouse
Method: For JAK‐Stat, MEK1 and EGFR inhibition, organoid cultures were respectively treated with Ruxotilinib (15 µM, Selleck, #s1039), U0126 (20 µM, Selleck, #s1102) and Afatinib (1 µM, Selleck, #s1011). The inhibitor was prepared following the manufacturer's instruction.

[1] = cited from earlier work
From the text: Herein, by analyzing AG model mice and patient samples with genetic tracing, organoid cultures, and RNA‐seq, we uncovered GSC defects as a critical AG pathogenic factor, associated with decreased signaling of EGF, an important GSC niche molecule. […] We wanted to test their therapeutic effect on AG model mice generated with n‐methyl‐n‐nitro‐n‐nitrosoguanidine (MNNG) and ranitidine (Figure 1A).

AG model mice = assay: AG mouse model (MNNG + ranitidine): histology and histopathology scoring; assay type: in vivo; conditions: comparison Moludan, Sijunzi decoction, berberine
Method: (§1) For establishment of a mouse model of atrophic gastritis, normal mice had free access to water containing N‐methyl‐N‐nitro‐N‐nitrosoguanidine (MNNG, […]). Moreover, the mice were given 400 µL of ranitidine (8 mg mL^−1) in solution at a dose of 150 mg kg^−1 daily. After 20 weeks, the mice were euthanized and examined.
(§2) Periplaneta americana insects were cultivated in an industrialized facility and the ethanol extract of (PEEPA) was prepared with a standardized method, which was dissolved in the vehicle containing water, 15% glycerol and 0.2% potassium sorbate. PEEPA‐derived peptides (PEEPA‐P5) were dissolved to 500 ng mL^−1 in water for in vitro experiments and to 1 mg mL^−1 for in vivo experiments. Mice were administrated with PEEPA, PEEPA‐P5, or vehicle through oral gavage daily for 2 or 4 weeks.
For murine gastritis samples, histologic scoring was blindly done following standard criteria. In brief, the oxyntic atrophy scoring was determined by the absence of parietal and chief cells in mucosa and the gastritis histology index has three categories, inflammation, epithelial defects, and oxyntic atrophy. A larger score represents a more severe gastritis.

GES-1 cells = assay: Cell viability assay (CCK-8); assay type: cell-based, human
Method: Cell culture and cell viability assay: Human gastric normal epithelial cell line GES-1 was cultured in DMEM medium containing 10% fetal bovine serum and 1% pencillin-streptomycin at 37℃ with 5% CO2. For cell viability assay, Cell Counting Kit-8 (CCK-8) was purchased from KeyGEN BioTECH Corp., Ltd. The cells were cultured in 96-wells plate and PEEPA-P5 was added in each well with different concentrations. After 3 days, substrate tetrazolium salt was added to each sample and incubated at 37℃ for 2 hrs and the absorbance at 450 nm was measured using BioTeck. […]
(§3) TRIzol reagent. cDNA was reverse transcribed from 500 ng RNA by PrimeScript RT […]
(§4) Light Cycler 480. The sequences of primers are as follows: Gastrin-F: 5’- GGACAGGGACCAATGAGG-3’; Gastrin-R: 5’-
(§5) -3’; SST-F: 5’-ACCGGGAAAAGGAACTGG-3’;
(§6) SST-R: 5’-TTGCTGGGTTCGAGTTGGC-3’; Muc5ac-F: 5’-
(§7) AGCCTAGCCACCACCTTAG-3’; TFF1-F: 5’-[…]-3’;
(§8) TFF1-R: 5’-[…]-3’; TFF2-F: 5’- TGCTCTGGTAGAGGGCGAG-3’; TFF2-R: 5’-CGAGCTAGAGTCAAAGAG-3’;
(§9) Spdef-F: 5’-GGAGGAGACTCTTCTGAAG-3’; Spdef-R: 5’-
(§10) -3’. For human genes, hPCNA-F: 5’-
(§11) CAGCGGTAGGTGTCGAAGC-3’; hTFF2-F: 5’-[…]-
(§12) 3’; hTTF2-R: 5’-[…]-3’; hMuc5ac-F: 5’-
(§13) GCGCACAGAGGATGACAGT-3’; hATP4b-F: 5’-[…]-
(§14) 3’; hATP4b-R: 5’-[…]-3’; hGastrin-F: 5’-
GCCCCTGTACCTAAGGGTG-3’; hAxin2-F: 5’-
RNA sequencing: The gastric muscle layer was removed under the stereoscope and the […]

[2] = Retention / stability in murine stomach (P5-fluorescein); assay type: in vivo
[3] = tested on: liver and kidney of AG model mice; assay: Body weight and liver/kidney histology in AG model mice; assay type: in vivo, mouse; conditions: PEEPA-P5; H&E, representative of three mice
Method: as §1, §2

[4] = no reference given; cited from earlier work
From the text: Moreover, PEEPA‐P5 has unique properties compared to EGF. […] Third, PEEPA‐induced ERK and Stat1 activation is much slower.

[5] = tested on: EGFR, ERKs, Stat1, Akt1, Stat3 in GES-1 cells; assay: Western blot of EGFR downstream signaling in GES-1 cells; assay type: cell-based, human; conditions: EGF 0.4 µM
Method: Western Blot: Tissue proteins were isolated using T-PER Tissue Protein Extraction Reagent (Thermo Fisher, #78510). Proteins of cultured cells were extracted using RIPA lysis buffer supplemented with 1 mM PMSF, […] pepstatin, leupeptin, and aprotonin. Equal amounts of total proteins were subjected to SDS-PAGE and transferred to PVDF membrane (Millipore). The primary antibodies include: p-Stat1 […]
(§15) results were visualized and quantified using the FluoChem M system (ProteinSimple).
Cell culture and cell viability assay: Human gastric normal epithelial cell line GES-1 was cultured in DMEM medium containing 10% fetal bovine serum and 1% pencillin- […]
streptomycin at 37℃ with 5% CO2. […]
as §3, §4, §5, §6, §7, §8, §9, §10, §11, §12, §13, §14
GCCCCTGTACCTAAGGGTG-3’; hAxin2-F: 5’- […]

[6] = tested on: EGFR-Stat1 and EGFR-ERK signaling in AG organoids; assay: Western blot of EGFR signaling in AG patient-derived gastric organoids; assay type: cell-based, human; conditions: organoids from AG patients
Method: (§16) The gastric antrum of mice was harvested and the middle part was cut open. After cleaning in PBS containing 1% pencillin‐streptomycin (PS) for several times, the food residue and other impurities were completely removed. The gastric gland epithelial layer was separated from the muscle layer with forceps under the stereoscope. The epithelial layer was cut into 2.5 mm long fragments, which were digested in 2.5 mM EDTA/DPBS at 4 °C for 1 h. The gland fragments were filtered through a 70 µm strainer (Thermo Fisher), washed with cold DPBS buffer, and centrifuged at 1000 rpm for 5 min. Afterward, the gland sediments were suspended in growth factor reduced phenol‐free Matrigel (Corning) and seeded into 48‐well plate. […] At different time points (Day 1, 3, 5, and 7), the organoids were observed under inverted microscope, and the organ diameter and bud numbers were measured to determine the levels of cell proliferation. […]
as §15
(§17) Cell culture and cell viability assay: Human gastric normal epithelial cell line GES-1 was cultured in DMEM medium containing 10% fetal bovine serum and 1% pencillin-streptomycin at 37℃ with 5% CO2. […] After 3 days, substrate tetrazolium salt was added to each sample and incubated at 37℃ for 2 hrs and the absorbance at 450 nm was measured using BioTeck. […]

[7] = tested on: EGFR-Stat1 and EGFR-ERK signaling in NAG organoids; assay: Western blot of EGFR signaling in NAG patient-derived gastric organoids; assay type: cell-based, human; conditions: organoids from NAG patients
Method: as §16, §15, §17

CN(C)C/C=C/C(=O)Nc1cc2c(Nc3ccc(F)c(Cl)c3)ncnc2cc1O[C@H]1CCOC1 [afatinib]
effect on PEEPA-induced organoid growth (gastric organoids; EGFR inhibitor afatinib 1 µM, mean ± SD, n=3): blocked the pro‐growth effect of PEEPA on gastric organoids

COc1ccc2cc3[n+](cc2c1OC)CCc1cc2c(cc1-3)OCO2 [berberine, reference compound]
reported therapeutic effects on AG ([1]; ref [16]): therapeutic effects on AG | restoration of gland structure, gastritis histology index and oxyntic atrophic score (compared with PEEPA) (AG model mice): only PEEPA restored the gastric gland structure

N#CC(=C(/N)Sc1ccccc1N)/C(C#N)=C(/N)Sc1ccccc1N [U0126]
effect on PEEPA-induced organoid growth (gastric organoids; ERK inhibitor U0126 20 µM, mean ± SD, n=3): suppressed PEEPA‐induced organoid growth

N#CC[C@H](C1CCCC1)n1cc(-c2ncnc3[nH]ccc23)cn1 [Ruxo, ruxolitinib]
effect on PEEPA-induced organoid growth and differentiation (gastric organoids; Jak inhibitor Ruxo 15 µM, n=6 (growth), n=3 (qPCR)): impeded PEEPA‐induced organoid growth and differentiation | expression of differentiation markers in gastric organoids (gastric organoids; Ruxo, qPCR, mean ± SD, n=3): suppressed the expression of differentiation markers

PAAEPVPLVKQD [PEEPA-P5]
pIC50 (GES-1 cells): 3.55 | toxicity towards GES-1 cells (GES-1 cells; CCK-8, 3 days): low cell toxicity | stability in the acidic environment of the stomach ([2]; inferred from retention of P5-fluorescein in mouse stomach): relatively stable in the acidic environment of the stomach | retention time in the stomach ([2]; mouse, oral gavage, measured using P5-fluorescein (PEEPA-P5-FITC), fluorescence at different time points): 3.09 h | effect on liver or kidney [3]: little effect on the kidney or liver structure; also recorded: no obvious effect on the liver or kidney

EGF: GSC niche molecule; EGF protein used as comparison
stability in acidic stomach environment [4]: instability of EGF in acidic stomach environment | downstream signaling activated by EGF [5]: activates ERK, Akt1, and Stat1/3 signaling | sensitivity to EGF, AG organoids [6]: organoids from AG patients are insensitive | sensitivity to EGF, NAG organoids [7]: organoids from NAG patients are highly sensitive to EGF | secretion of defensin 3 ([1]; ref [15]): promotes secretion of defensin 3
